Data taken from paper PMC3479139, “Diverse Small Molecule Inhibitors of Human Apurinic/Apyrimidinic Endonuclease APE1 Identified from a Screen of a Large Public Collection” (PLoS ONE, 2012).

Experiments:
E. coli Endo IV = biological target: T1, E. coli Endo IV (Escherichia coli, UniProt P0A6C1); test: E. coli Endo IV profiling counterscreen; type: biochemical; conditions: read-out: EndoIV IC50;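 note: selectivity counterscreen of candidate APE1 inhibitors against the bacterial endonuclease Endo IV, run in the same assay format as the primary APE1 high-throughput screen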
T1 construct: made in house
Excerpt: In order to screen out nonselective compounds, such as non-specific DNA binders and inhibitors of related enzymes, we used a miniaturized ThO DNA displacement assay and a counterscreen against the bacterial endonuclease E. coli Endo IV, respectively, following the previously published protocols [21].
To probe the selectivity of the candidate APE1 inhibitors, we tested them against E. coli EndoIV [36], employing the same assay as used in the HTS.

APE1 [1] = biological target: T2, APE1 (Homo sapiens, UniProt P27695); test: Gel-based radiotracer (32P) APE1 incision assay; type: biochemical; design: concentration or dose not given beside the values; conditions: percent incision shown; entries 1-112;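 note: APE1 incision reactions ran 5 min at 37 °C, with cleaved product and intact substrate resolved electrophoretically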
T2 construct: made in house

[2] = biological target: double-stranded 17-mer DNA fragment; test: ThO (Thiazole Orange) DNA displacement assay; type: binding; conditions: for IC50: read-out: ThO-DNA binding IC50;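 for all read-outs here: miniaturized displacement of the intercalating dye from unlabeled duplex DNA, used to flag nonspecific DNA binders, chiefly intercalators, groove binders may be missed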
APE1 [3] = biological target: T2, APE1; test: Fluorogenic kinetic qHTS APE1 incision assay (primary screen and retest of cherrypicked samples); type: biochemical;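 note: purified APE1 cleaving a fluorophore/dark-quencher labelled 17-mer duplex DNA bearing a tetrahydrofuran AP site, fluorescence rise followed kinetically over the first 2 min, inhibition normalized to controls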
APE1 [4] = biological target: T2, APE1; test: Fluorescence polarization (FP) displacement assay of APE1 binding to AP-DNA probe; conditions: read-out: FP IC50;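 note: TAMRA 5′-labeled duplex DNA with THF abasic site (5 nM) and APE1 (20 nM), Mg2+-free buffer, 15 min at room temperature, inhibition seen as lowered polarization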
[5] = initial quantitative high-throughput screen, read-out: APE1 qHTS IC50
[6] = retest of cherrypicked sample, read-out: APE1 Retest IC50

T2 sequence (P27695 whole entry): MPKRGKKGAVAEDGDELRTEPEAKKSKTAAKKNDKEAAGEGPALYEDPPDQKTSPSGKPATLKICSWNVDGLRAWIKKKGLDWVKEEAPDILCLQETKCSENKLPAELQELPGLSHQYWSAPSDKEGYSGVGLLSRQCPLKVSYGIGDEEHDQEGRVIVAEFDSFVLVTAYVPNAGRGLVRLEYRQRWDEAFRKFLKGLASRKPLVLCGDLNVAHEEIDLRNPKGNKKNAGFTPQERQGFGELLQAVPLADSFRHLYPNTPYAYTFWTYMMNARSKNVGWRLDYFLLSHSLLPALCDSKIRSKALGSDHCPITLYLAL

Row | SMILES | IC50 (E. coli Endo IV) [µM] | Radiotracer Assay (%Activity) (APE1 [1]) [%] | IC50 [2] [µM] | IC50 (APE1 [3]; [5]) [µM] | IC50 (APE1 [3]; [6]) [µM] | IC50 (APE1 [4]) [µM] | ThO assay signal behaviour (autofluorescence interference) [2]
1 | Cc1cccc(C)c1NC(=O)CSc1nnc(-c2ccco2)c(-c2ccco2)n1 [MLS000556463] | > 57 | 43 | > 57 | 15.6 | 3.6 | > 57 | –
2 | O=C(O)c1ccc(-n2cccc2/C=C2/NC(=O)N(c3cccc(Cl)c3)C2=O)cc1 [MLS000621695] | > 57 | 6 | 15.8 | 2.8 | 1.6 | 11.2 | –
3 | Nc1ccc(Nc2ccccc2)c(S(=O)(=O)O)c1 [MLS000737782] | > 57 | 9 | > 57 | 14.1 | 15.8 | > 57 | –
4 | O=C1C=CC2=C3c4cc(O)c(O)cc4CC3(O)COC2=C1O (stereo not shown) [NCGC00095664] | > 57 | 4.1 | 11.2 | 0.1 | 0.1 | 15.8 | –
5 | Cc1ccc(S(=O)(=O)Nc2csc(C)c2C(=O)O)cc1 [MLS000850015] | > 57 | 49 | > 57 | 11.2 | 15.8 | > 57 | –
6 | CC(=O)[C@]1(O)Cc2c(O)c3c(c(O)c2[C@@H](O[C@H]2C[C@H](N)[C@H](O)[C@H](C)O2)C1)C(=O)c1ccccc1C3=O [NCGC00093976] | 25.1 | 4.6 | – | 19.9 | 14.1 | 3.2 | strong dose-dependent fluorescence signal increase
7 | O=C(N/N=C/c1cccn1-c1cccc(C(=O)O)c1)Nc1ccccc1 [MLS000588622] | > 57 | 32 | > 57 | 5 | 3.5 | > 57 | –
8 | CSC1=N/C(=C\c2ccc(Br)o2)C(=O)S1 [MLS000534059] | > 57 | 36 | > 57 | – | 8.9 | > 57 | –
9 | COc1cc(N(C)C)cc(CN(C)CCc2ccc([N+](=O)[O-])cc2)c1O [NCGC00165741] | > 57 | 10.6 | > 57 | 3.2 | 0.3 | > 57 | –
10 | Cc1ccc(NC(=O)CN2C(=O)N/C(=C\c3cccn3-c3cccc(C(=O)O)c3)C2=O)cc1 [MLS000686355] | > 57 | 15 | > 57 | 3.5 | 1.4 | 14.1 | –
11 | O=C(NN1C(=O)/C(=C/C=C/c2ccco2)SC1=S)c1ccncc1 [MLS000762704] | > 57 | 36 | > 57 | 4.5 | 4.5 | > 57 | –
12 | Oc1cc(O)c2c(c1)OC(c1ccc(O)c(O)c1)C(O)C2 (stereo not shown) [NCGC00095270] | > 57 | 35.9 | > 57 | 3.2 | 2.8 | > 57 | –
13 | O=C1CC(=O)N(Cc2ccco2)C(=O)N1 [MLS000062734] | > 57 | 14 | > 57 | 10 | 5.6 | > 57 | –
14 | CCn1c(SCC(=O)O)nc2sc3c(c2c1=O)CCC3 [MLS000069140] | > 57 | 22.3 | > 57 | 22.4 | 12.6 | > 57 | –
15 | O=C(COC(=O)c1cc2c(s1)CCC2)Nc1ccc(F)cc1 [MLS000334872] | > 57 | 39 | > 57 | – | 10 | 12.6 | –
16 | O=C(O)c1ccc(-n2cccc2/C=C2/NC(=O)N(c3ccccc3)C2=O)cc1 [MLS000778414] | > 57 | 37 | > 57 | 2.5 | 4 | 12.6 | –
17 | CC(C)C(C(=O)O)N1C(=O)/C(=C/C=C/c2ccco2)SC1=S (stereo not shown) [MLS000551672] | > 57 | 19 | > 57 | 1.6 | 2.5 | 11.2 | –
18 | Cc1cc(/C=C2\C(=O)NC(=O)N(Cc3ccccc3Cl)C2=O)c(C)n1-c1ccc(C(=O)O)cc1 [MLS000627094] | > 57 | 2 | > 57 | 11.2 | 12.6 | 15.8 | –
19 | Cc1c(O)cc2c(c1O)C(=O)CC(c1ccc(O)cc1)O2 (stereo not shown) [MLS000876957] | > 57 | 44 | > 57 | 1.6 | 4.5 | > 57 | –
20 | O=C(/C=C/c1ccco1)NCc1ccco1 [MLS000768482] | > 57 | 21 | > 57 | 22.4 | 4.5 | > 57 | –
21 | O=c1/c(=C/c2ccco2)sc2nc(-c3ccccc3Br)nn12 [MLS000039532] | > 57 | 9 | > 57 | 22.4 | 7.9 | > 57 | –
22 | COc1ccc2c(c1)c(=O)oc1cc(OCC(=O)NC3CCCCC3)ccc12 [MLS000594161] | > 57 | 38 | > 57 | 11.2 | 5.6 | > 57 | –
23 | COc1ccc(C(CC(=O)N2CCCCC2)c2c(OC)cc(OC)c3c(-c4ccccc4)cc(=O)oc23)cc1 (stereo not shown) [MLS000879461] | > 57 | 24 | > 57 | 25.1 | 7.9 | 14.1 | –
24 | C[C@@]1(C(=O)O)NCCc2cc(O)c(O)cc21 [NCGC00024700] | > 57 | 17.1 | > 57 | 1.8 | – | > 57 | –
25 | O=C1CCCC(O)=C1N=Nc1ccc(C(=O)O)cc1 [MLS000759943] | > 57 | 47 | > 57 | 8.9 | 10 | > 57 | –
26 | Cn1cnnc1SCC(=O)Nc1nc(-c2ccccc2)cs1 [MLS000711532] | > 57 | 32 | > 57 | 28.2 | 10 | > 57 | –
27 | Cc1ccc(NC(=O)CN2C(=O)S/C(=C\c3cccn3-c3cccc(C(=O)O)c3)C2=O)c(C)c1 [MLS000540800] | > 57 | 0 | > 57 | 8.9 | 12.6 | 15.8 | –
28 | COc1ccc(N2CCN(C(=O)Cc3ccc(S(=O)(=O)N4CCOCC4)s3)CC2)cc1 [MLS000760918] | > 57 | 45 | > 57 | 14.1 | – | > 57 | –
29 | CC(=O)OCC1=C(C(=O)[O-])N2C(=O)C(NC(=O)CCCC(N)C(=O)O)C2SC1.[Na+] (stereo not shown) [NCGC00094863] | > 57 | 41 | > 57 | 22.4 | – | > 57 | –
